Laboratory results published in ChEMBL document CHEMBL3822442, “Synthesis and Pharmacological Characterization of Novel Glucagon-like Peptide-2 (GLP-2) Analogues with Low Systemic Clearance” (J Med Chem, 2016).

Assays:
[1] = molecular target: T1, Glucagon-like peptide 2 receptor (Rattus norvegicus, UniProt Q9Z0W0); assay: Agonist activity at rat GLP2R expressed in HEK293 cells after 5 hrs by luciferase reporter gene assay; format: cell-based
T1 sequence (Q9Z0W0 whole entry): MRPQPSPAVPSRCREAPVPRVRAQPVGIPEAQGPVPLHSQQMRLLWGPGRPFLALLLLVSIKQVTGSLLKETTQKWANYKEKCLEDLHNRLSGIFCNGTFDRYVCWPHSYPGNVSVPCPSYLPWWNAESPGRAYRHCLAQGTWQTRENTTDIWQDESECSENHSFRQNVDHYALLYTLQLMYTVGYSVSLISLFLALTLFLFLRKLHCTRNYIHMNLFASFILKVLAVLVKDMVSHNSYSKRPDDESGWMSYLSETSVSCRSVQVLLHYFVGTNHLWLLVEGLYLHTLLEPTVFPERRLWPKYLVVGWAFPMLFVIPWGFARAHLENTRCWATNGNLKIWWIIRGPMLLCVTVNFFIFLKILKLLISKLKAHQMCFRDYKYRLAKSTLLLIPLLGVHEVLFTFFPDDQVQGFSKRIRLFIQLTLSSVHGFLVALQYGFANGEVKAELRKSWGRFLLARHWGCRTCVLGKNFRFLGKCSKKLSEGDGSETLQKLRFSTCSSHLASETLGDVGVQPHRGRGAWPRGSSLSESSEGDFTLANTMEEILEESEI

[2] = molecular target: Glucagon-like peptide 1 receptor (Homo sapiens, UniProt P43220); assay: Agonist activity at human GLP1R expressed in HEK293 cells after 5 hrs by luciferase reporter gene assay; format: cell-based
Rattus norvegicus = assay: Intestinotrophic activity in Sprague-Dawley rat assessed as increase in intestinal growth at 1000 nmol/kg, sc once daily through bolus administration for 5 days relative to control; format: functional
[3] = Half life in sc dosed human; format: ADME, organism-based; settings: in vivo
[4] = Protein binding in rat plasma at 200 to 1000 ng/ml incubated for 15 mins by LC/MS/MS based ultracentrifugation method; format: ADME, cell-free; settings: read-out: PPB (converted)

Glucagon-like peptide 1 receptor, sequence (P43220 whole entry): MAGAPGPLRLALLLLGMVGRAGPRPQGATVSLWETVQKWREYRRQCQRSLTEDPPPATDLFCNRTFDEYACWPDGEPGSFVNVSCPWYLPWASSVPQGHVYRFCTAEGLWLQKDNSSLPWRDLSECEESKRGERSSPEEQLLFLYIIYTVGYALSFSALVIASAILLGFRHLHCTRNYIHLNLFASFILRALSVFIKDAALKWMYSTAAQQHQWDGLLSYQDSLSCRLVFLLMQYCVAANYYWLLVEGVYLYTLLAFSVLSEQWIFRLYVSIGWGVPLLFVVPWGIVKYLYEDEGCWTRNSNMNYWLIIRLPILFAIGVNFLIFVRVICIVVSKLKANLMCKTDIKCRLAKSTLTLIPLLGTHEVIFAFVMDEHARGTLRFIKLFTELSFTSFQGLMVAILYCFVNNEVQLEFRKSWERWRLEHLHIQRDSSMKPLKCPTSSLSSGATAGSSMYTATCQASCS

With `CC[C@H](C)[C@H](NC(=O)[C@H](Cc1ccccc1)NC(=O)[C@H](CC(=O)O)NC(=O)[C@H](CCCNC(=N)N)NC(=O)[C@H](C)NC(=O)[C@H](C)NC(=O)[C@H](CC(C)C)NC(=O)[C@H](CC(N)=O)NC(=O)[C@H](CC(=O)O)NC(=O)[C@H](CC(C)C)NC(=O)[C@@H](NC(=O)[C@@H](NC(=O)[C@H](CC(N)=O)NC(=O)[C@H](CCSC)NC(=O)[C@H](CCC(=O)O)NC(=O)[C@H](CC(=O)O)NC(=O)[C@H](CO)NC(=O)[C@H](Cc1ccccc1)NC(=O)[C@H](CO)NC(=O)CNC(=O)[C@H](CC(=O)O)NC(=O)CNC(=O)[C@@H](N)Cc1c[nH]cn1)[C@@H](C)O)[C@@H](C)CC)C(=O)N[C@@H](CC(N)=O)C(=O)N[C@@H](Cc1c[nH]c2ccccc12)C(=O)N[C@@H](CC(C)C)C(=O)N[C@H](C(=O)N[C@@H](CCC(N)=O)C(=O)N[C@H](C(=O)N[C@@H](CCCCN)C(=O)N[C@H](C(=O)N[C@H](C(=O)N[C@@H](CC(=O)O)C(=O)O)[C@@H](C)O)[C@@H](C)CC)[C@@H](C)O)[C@@H](C)CC` [TEDUGLUTIDE] the EC50 [1] was 0.08 nM, the EC50 [2] was greater than 1000 nM and the Activity (Rattus norvegicus) was 39%. It also gave a half-life [3] of 3 h and a fraction unbound at 0.25 h [4] of 0.419.
